Data published in ChEMBL document CHEMBL1145274, “The evaluation of 2,8-disubstituted benzoxazinone derivatives as anti-inflammatory and anti-platelet aggregation agents” (Bioorg Med Chem Lett, 2005).
pIC50: −log10 of the molar value.

How the values were obtained:
Type in all cases: functional, organism-based
Homo sapiens [1] = species: Homo sapiens; assay: Inhibitory concentration for anti-platelet aggregation induced by collagen at 10 ug/mL concentration
Homo sapiens [2] = species: Homo sapiens; assay: Inhibitory concentration for anti-platelet aggregation induced by thrombin at 0.1 U/mL concentration
Homo sapiens [3] = species: Homo sapiens; assay: Inhibitory concentration for anti-platelet aggregation induced by arachidonic acid at 100 uM concentration
Homo sapiens [4] = species: Homo sapiens; assay: Inhibitory concentration for anti-platelet aggregation induced by platelet activating factor at 2 ng/mL concentration
Homo sapiens [5] = species: Homo sapiens; assay: Inhibitory concentration against superoxide anion (O2-) generation in human neutrophils induced by FMLP (formyl-Met-Leu-Phe) and […](phorbol myristate acetate)
Homo sapiens [6] = species: Homo sapiens; assay: Inhibitory concentration against neutrophil elastase release induced by FMLP (formyl-Met-Leu-Phe)

SMILES	pIC50 (Homo sapiens [1])	pIC50 (Homo sapiens [2])	pIC50 (Homo sapiens [3])	pIC50 (Homo sapiens [4])	pIC50 (Homo sapiens [5])	pIC50 (Homo sapiens [6])
COc1cccc2c(=O)oc(-c3ccc(Br)cc3)nc12	< 4.00	< 4.00	< 4.00	< 4.00	< 4.40	
COc1cccc2c(=O)oc(-c3ccccc3F)nc12	4.40	5.14	5.10	< 4.00	5.01	
COc1cccc2c(=O)oc(-c3ccccc3Cl)nc12	4.45	5.16	4.93	< 4.00	4.83	
COc1ccccc1-c1nc2c(OC)cccc2c(=O)o1	< 4.00	< 4.00	< 4.00	< 4.00	4.85	5.80
COc1ccccc1-c1nc2c(C)cccc2c(=O)o1	4.26	< 4.00	4.44	< 4.00	4.64	5.14
Cc1cccc2c(=O)oc(-c3ccccc3F)nc12	4.92	4.46	5.17	< 4.00	4.97	< 4.40
O=c1oc(-c2ccccc2Cl)nc2c(Cl)cccc12	4.52	5.18	5.21	4.16	5.06	5.72
O=c1oc(-c2ccccc2F)nc2c(Cl)cccc12	4.31	4.83	4.90	4.06	< 4.40	5.22
COc1ccccc1-c1nc2c(Cl)cccc2c(=O)o1	4.35	4.83	4.60	4.15	5.00	5.72
Cc1cccc2c(=O)oc(-c3ccccc3Cl)nc12	4.90	4.92	5.37	< 4.00	4.52	< 4.40
O=c1oc(-c2ccccc2Br)nc2c(Cl)cccc12	4.33	5.15	4.99	4.06	5.18	5.77
COc1cccc2c(=O)oc(-c3ccccc3C)nc12	4.46	4.17	5.08	< 4.00	4.94	4.98
Cc1ccccc1-c1nc2c(C)cccc2c(=O)o1	< 4.00	< 4.00	4.71	< 4.00	4.63	< 4.40
Cc1cccc2c(=O)oc(-c3ccccc3Br)nc12	4.30	4.72	5.24	4.05	4.52	< 4.40
CCc1nc2c(OC)cccc2c(=O)o1	< 4.00	< 4.40	< 4.00	< 4.40	4.00	4.00
COc1cccc2c(=O)oc(C)nc12	< 4.00	< 4.00	< 4.00	< 4.00	< 4.40	< 4.40
Cc1ccccc1-c1nc2c(Cl)cccc2c(=O)o1	4.20	4.44	4.86	4.04	4.76	< 4.40
COc1cccc2c(=O)oc(-c3ccccc3Br)nc12	4.68	5.36	4.89	< 4.00	4.78	
COc1cccc2c(=O)oc(-c3ccc(Cl)cc3)nc12	< 4.00	< 4.00	< 4.00	< 4.00	< 4.40	
COc1cccc2c(=O)oc(-c3ccccc3)nc12	4.47	4.32	4.33	< 4.00	< 4.40	< 4.40
CCCCc1nc2c(OC)cccc2c(=O)o1	< 4.00	< 4.00	< 4.00	< 4.00	< 4.40	< 4.40
CC(=O)Oc1ccccc1C(=O)O [ASPIRIN]	4.46	< 4.00	4.46	< 4.00		
c1ccc2c(c1)[I+]c1ccccc1-2 [DIPHENYLENEIODONIUM]					6.34	
